Legend:
[1] = target: T1, wild-type nAChR α7 receptors (Homo sapiens, UniProt P36544); experiment: Positive modulation of acetylcholine-induced currents, two-electrode voltage clamp in Xenopus oocytes; type: cell-based; details: for maximal modulation of the acetylcholine (control) response (Imax) / EC50: 100 μM acetylcholine, nAChR α7 expressed in Xenopus laevis oocytes; for maximal modulation of the acetylcholine (control) response (Imax): (test-control)/control×100%; for EC50: clamped at −60 mV, compound 0.01-31.6 μM, read-out: EC50 for positive modulation of acetylcholine responses; for effect on acetylcholine-induced current amplitude: 0.01-31.6 μM compound applied 30 s before and during 100 μM acetylcholine application
T1 construct: expressed in transfected cells; host or cells: Xenopus laevis oocytes
Procedure: In this example the positive modulation of wild-type nAChR α7 receptors by Compound 1 (FIGS. 1A and 1B) and Compound 3 (FIGS. 2A and 2B) was determined using nAChR α7 receptors heterologously expressed in Xenopus laevis oocytes.
The electrical current through the nAChR α7 channel was measured using conventional two-electrode voltage clamp and nAChR α7 currents were activated by applying pulses of agonist-containing solution onto the nAChR α7 expressing oocyte. In brief, the oocytes were placed in a recording chambers and continuously superfused with an Oocyte Ringer (OR) solution containing 90 mM NaCl, 2.5 mM KCl, 2.5 mM CaCl2, 1 mM MgCl2 and 5 mM HEPES (pH adjusted to 7.4). The oocytes were clamped at −60 mV and currents were induced by applying 20 s pulses of 100 μM acetylcholine dissolved in OR. The intervals between the acetylcholine applications were 5 minutes, during which the oocytes were washed with OR. The first three applications were control applications to insure a constant response level of 100 μM acetylcholine.
The positive modulation in the presence of Compound 1 and Compound 3 was calculated as (test-control)/control×100% and the concentration response curve for this positive modulation was fitted to the sigmoidal logistic equation: I=Imax/(1+(EC50/[compound])^n), where Imax represents the maximal modulation of the control response, EC50 is the concentration causing a half maximal response, and n is the slope coefficient.

T1 sequence (P36544 23-502): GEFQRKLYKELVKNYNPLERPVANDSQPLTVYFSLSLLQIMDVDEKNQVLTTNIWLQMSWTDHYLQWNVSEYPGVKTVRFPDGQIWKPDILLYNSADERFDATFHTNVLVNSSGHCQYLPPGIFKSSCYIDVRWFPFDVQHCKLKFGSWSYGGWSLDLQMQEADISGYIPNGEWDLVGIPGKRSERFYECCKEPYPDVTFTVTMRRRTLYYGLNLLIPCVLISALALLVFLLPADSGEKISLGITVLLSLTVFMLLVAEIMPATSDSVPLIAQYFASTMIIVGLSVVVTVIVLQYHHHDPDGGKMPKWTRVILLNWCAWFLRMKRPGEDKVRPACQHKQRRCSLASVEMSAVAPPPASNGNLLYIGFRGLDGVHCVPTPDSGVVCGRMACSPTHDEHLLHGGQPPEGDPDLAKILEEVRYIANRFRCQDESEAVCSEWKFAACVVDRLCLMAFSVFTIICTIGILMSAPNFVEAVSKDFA

Row | Compound | melting point | also measured
1 | COc1ccc(-c2nnn(-c3ccc(Cl)cc3Cl)c2N)cc1 [Compound 1, 3-(2,4-Dichloro-phenyl)-5-(4-methoxy-phenyl)-3H-[1,2,3]triazol-4-ylamine] | 149.2 to 150.7 °C | maximal modulation of the acetylcholine (control) response (Imax) [1]: 561%; EC50 [1]: 4.9 µM; effect on acetylcholine-induced current amplitude [1]: robust increase
2 | COc1ccc(Cl)cc1-c1nnn(-c2ccc(C(F)(F)F)cc2Cl)c1N [Compound 2, 5-(5-Chloro-2-methoxy-phenyl)-3-(2-chloro-4-trifluoromethyl-phenyl)-3H-[1,2,3]triazol-4-ylamine] | 152.8 to 153.3 °C | –
3 | COc1ccc(Cl)cc1-c1nnn(-c2ccc(Cl)cc2Cl)c1N [Compound 4, 5-(5-Chloro-2-methoxy-phenyl)-3-(2,4-dichloro-phenyl)-3H-[1,2,3]triazol-4-ylamine] | 153.5 to 154.7 °C | –
4 | COc1ccc(-c2nnn(-c3ccc(F)cc3Cl)c2N)cc1 [Compound 5, 3-(2-Chloro-4-fluoro-phenyl)-5-(4-methoxy-phenyl)-3H-[1,2,3]triazol-4-ylamine] | 136.3 to 141.2 °C | –
5 | COc1ccc(-n2nnc(-c3ccc(Cl)cc3Cl)c2N)cc1 [Compound 6, 5-(2,4-Dichloro-phenyl)-3-(4-methoxy-phenyl)-3H-[1,2,3]triazol-4-ylamine] | 154.6 to 163.9 °C | –
6 | COc1ccc(-c2nnn(-c3cc(C)on3)c2N)cc1 [Compound 7, 5-(4-Methoxy-phenyl)-3-(5-methyl-isoxazol-3-yl)-3H-[1,2,3]triazol-4-yl amine] | 136.3 to 141.2 °C | –
7 | Nc1c(-c2cc(Cl)ccc2O)nnn1-c1ccc(Cl)cc1Cl [Compound 8, 2-[5-Amino-1-(2,4-dichloro-phenyl)-1H-[1,2,3]triazol-4-yl]-4-chloro-phenol] | 131.3 to 135.6 °C | –
8 | Nc1c(-c2cc(Cl)ccc2O)nnn1-c1ccc(C(F)(F)F)cc1Cl [Compound 9, 2-[5-Amino-1-(2-chloro-4-trifluoromethyl-phenyl)-1H-[1,2,3]triazol-4-yl]-4-chloro-phenol] | 74.5 to 77.5 °C | –
9 | COc1ccc(-c2nnn(-c3c(Cl)cc(Cl)cc3I)c2N)cc1 [Compound 22, 3-(2,4-Dichloro-6-iodo-phenyl)-5-(4-methoxy-phenyl)-3H-[1,2,3]triazol-4-ylamine] | 72.5 to 73.6 °C | –
10 | COc1ccc(-n2nnc(-c3ccc(Cl)cc3C(F)(F)F)c2N)cc1 [Compound 23, 5-(4-Chloro-2-trifluoromethyl-phenyl)-3-(4-methoxy-phenyl)-3H-[1,2,3]triazol-4-ylamine] | 159.2 to 160.2 °C | –
11 | COc1ccc(-n2nnc(-c3ccc(F)cc3F)c2N)cc1 [Compound 24, 5-(2,4-Difluoro-phenyl)-3-(4-methoxy-phenyl)-3H-[1,2,3]triazol-4-ylamine] | 152 to 156.5 °C | –
12 | COc1ccc(-n2nnc(-c3ccc(F)cc3Cl)c2N)cc1 [Compound 25, 5-(2-Chloro-4-fluoro-phenyl)-3-(4-methoxy-phenyl)-3H-[1,2,3]triazol-4-ylamine] | 175 to 176.8 °C | –
13 | COc1ccc(-n2nnc(-c3ccc(Cl)c(Cl)c3)c2N)cc1 [Compound 26, 5-(3,4-Dichloro-phenyl)-3-(4-methoxy-phenyl)-3H-[1,2,3]triazol-4-ylamine] | 189.9 to 191.3 °C | –
14 | COc1ccc(-n2nnc(-c3ccc(Cl)cc3F)c2N)cc1 [Compound 27, 5-(4-Chloro-2-fluoro-phenyl)-3-(4-methoxy-phenyl)-3H-[1,2,3]triazol-4-ylamine] | 147.9 to 149.5 °C | –

Continued, in another order:

Row | melting point | Compound | also measured
15 | 130 to 130.7 °C | COc1ccc(-c2nnn(-c3ccc(C(F)(F)F)cc3Cl)c2N)cc1 [Compound 3, 3-(2-Chloro-4-trifluoromethyl-phenyl)-5-(4-methoxy-phenyl)-3H-[1,2,3]triazol-4-ylamine] | maximal modulation of the acetylcholine (control) response (Imax) [1]: 563%; EC50 [1]: 1.7 µM; effect on acetylcholine-induced current amplitude [1]: robust increase
16 | 184.6 to 186.1 °C | Nc1c(-c2ccc(-c3nnco3)cc2)nnn1-c1ccc(C(F)(F)F)cc1F [Compound 10, 3-(2-Fluoro-4-trifluoromethyl-phenyl)-5-(4-[1,3,4]oxadiazol-2-yl-phenyl)-3H-[1,2,3]triazol-4-ylamine] | –
17 | 114.8 to 116.2 °C | CC(=O)Nc1ccc(-c2nnn(-c3ccc(C(F)(F)F)cc3F)c2N)cc1 [Compound 11, N-{4-[5-Amino-1-(2-fluoro-4-trifluoromethyl-phenyl)-1H-[1,2,3]triazol-4-yl]-phenyl}-acetamide] | –
18 | 163.6 to 165 °C | Nc1ccc(-c2nnn(-c3ccc(C(F)(F)F)cc3F)c2N)cc1 [Compound 12, 5-(4-Amino-phenyl)-3-(2-fluoro-4-trifluoromethyl-phenyl)-3H-[1,2,3]triazol-4-ylamine] | –
19 | 183.8 to 185.2 °C | Nc1c(-c2ccc(C(F)(F)F)cc2F)nnn1-c1ccc(S(N)(=O)=O)cc1 [Compound 13, 4-[5-Amino-4-(2-fluoro-4-trifluoromethyl-phenyl)-[1,2,3]triazol-1-yl]-benzenesulfonamide] | –
20 | 163.5 to 165.2 °C | Nc1c(-c2ccc(O)cc2)nnn1-c1ccc(C(F)(F)F)cc1F [Compound 15, 4-[5-Amino-1-(2-fluoro-4-trifluoromethyl-phenyl)-1H-[1,2,3]triazol-4-yl]-phenol] | –
21 | 164.6 to 165.5 °C | COc1ccc(-n2nnc(-c3ccc(C(F)(F)F)cc3F)c2N)cc1 [Compound 16, 5-(2-Fluoro-4-trifluoromethyl-phenyl)-3-(4-methoxy-phenyl)-3H-[1,2,3]triazol-4-ylamine] | –
22 | 176.2 to 177.5 °C | Nc1c(-c2ccc(C(F)(F)F)cc2F)nnn1-c1ccc(O)cc1 [Compound 17, 4-[5-Amino-4-(2-fluoro-4-trifluoromethyl-phenyl)-[1,2,3]triazol-1-yl]-phenol] | –
23 | 169.9 to 170.2 °C | Nc1c(-c2ccc(Cl)cc2)nnn1-c1ccc(C(F)(F)F)cc1F [Compound 18, 5-(4-Chloro-phenyl)-3-(2-fluoro-4-trifluoromethyl-phenyl)-3H-[1,2,3]triazol-4-ylamine] | –
24 | 134.2 to 134.9 °C | Nc1c(-c2ccc(OC(F)(F)F)cc2)nnn1-c1ccc(C(F)(F)F)cc1F [Compound 19, 3-(2-Fluoro-4-trifluoromethyl-phenyl)-5-(4-trifluoromethoxy-phenyl)-3H-[1,2,3]triazol-4-ylamine] | –
25 | 161 to 162.3 °C | Nc1c(-c2ccc(O)cc2)nnn1-c1ccc(C(F)(F)F)cc1Cl [Compound 21, 4-[5-Amino-1-(2-chloro-4-trifluoromethyl-phenyl)-1H-[1,2,3]triazol-4-yl]-phenol] | –

Reference: patent US8110588B2, “1,2,3-triazole derivatives useful as modulators of nicotinic acetylcholine receptors” (Neurosearch A/S, priority 2007, dated 2012)
